According to patent publication US20040110771A1, “7-(r)-aminotriazolopyrimidines, the production thereof and use of the same for combatting phytopathogenic fungi” (priority 2000, published 2004):

Columns and labels:
Type in all cases: in vivo
Puccinia recondita = experiment: Curative activity against brown rust of wheat caused by Puccinia recondita; conditions: curative spray 24 h after inoculation, wheat seedlings "Kanzler", 7 days
Method: (§1) The active compounds were prepared separately or jointly as a 10% strength emulsion in a mixture of 70% by weight of cyclohexanone, 20% by weight of Nekanil® LN (Lutensol® AP6, wetting agent having emulsifying and dispersing action based on ethoxylated alkylphenols) and 10% by weight of Wettol® EM (nonionic emulsifier based on ethoxylated castor oil) and diluted with water to the desired concentration.
Leaves of potted wheat seedlings of the cultivar “Kanzler” were dusted with spores of brown rust (Puccinia recondita). The pots were then placed in a chamber with high atmospheric humidity (90 to 95%) at 20-22° C. for 24 hours. During this period, the spores germinated and the germinal tubes penetrated into the leaf tissue. The following day, the infected plants were sprayed to runoff point with an aqueous preparation of active compound which had been prepared from a stock solution made of 10% of active compound, 85% of cyclohexanone and 5% of emulsifier. After the spray coating had dried on, the test plants were cultivated in a greenhouse at 20-22° C. and 65-70% relative atmospheric humidity for 7 days. The extent of the rust fungus development on the leaves was then determined.

Pyrenophora teres = experiment: Activity against net blotch of barley caused by Pyrenophora teres; conditions: barley seedlings "Igri", inoculated 24 h after spraying, 6 days
Method: as §1
Leaves of potted barley seedlings of the cultivar “Igri” were sprayed to runoff point with an aqueous preparation of active compound which had been prepared from a stock solution made of 10% of active compound, 85% of cyclohexanone and 5% of emulsifier and were inoculated 24 hours after the spray coating had dried on with an aqueous spore suspension of Pyrenophora teres, the net blotch pathogen. The test plants were then placed in a greenhouse at 20-24° C. and 95-100% relative atmospheric humidity. After 6 days, the extent of the development of the disease was determined visually in % infection of the entire leaf area.

[1] = system: Blumeria graminis forma specialis tritici; experiment: Activity against mildew of wheat caused by Blumeria graminis forma specialis tritici; conditions: wheat seedlings "Kanzler", dusted with spores 24 h after spraying, 7 days
Method: as §1
Leaves of potted wheat seedlings of the cultivar “Kanzler” were sprayed to runoff point with an aqueous preparation of active compound which had been prepared from a stock solution made of 10% of active compound, 85% of cyclohexanone and 5% of emulsifier and were dusted 24 hours after the spray coating had dried on with spores of mildew of wheat (Blumeria graminis forma specialis tritici). The test plants were then placed in a greenhouse at 20-24° C. and 60-90% relative atmospheric humidity. After 7 days, the extent of the mildew development was determined visually in % infection of the entire leaf area.

Septoria tritici = experiment: Protective activity against Septoria foliar blotch disease of wheat caused by Septoria tritici; conditions: wheat seedlings "Riband", inoculated 24 h after spraying, 2 weeks
Method: as §1
Leaves of potted wheat seedlings of the cultivar “Riband” were sprayed to runoff point with an aqueous preparation of active compound which had been prepared from a stock solution made of 10% of active compound, 85% of cyclohexanone and 5% of emulsifier. 24 hours after the spray coating had dried on, they were inoculated with an aqueous spore suspension of Septoria tritici. The suspension contained 2.0×10^6 spores/ml. The test plants were then placed in a greenhouse at 18-22° C. and a relative atmospheric humidity of close to 100%. After 2 weeks, the extent of the development of the disease was determined visually in % infection of the entire leaf area.

| SMILES | % infection of the leaves after application of an aqueous preparation comprising . . . ppm of active compound (Puccinia recondita; 16 ppm) [%] | % infection of the leaves after application of an aqueous preparation comprising . . . ppm of active compound (Puccinia recondita; 63 ppm) [%] | % infection of the leaves after application of an aqueous preparation comprising . . . ppm of active compound (Puccinia recondita; 250 ppm) [%] | % infection of the leaves after application of an aqueous preparation comprising . . . ppm of active compound (Pyrenophora teres; 16 ppm) [%] | % infection of the leaves after application of an aqueous preparation comprising . . . ppm of active compound ([1]; 16 ppm) [%] | % infection of the leaves after application of an aqueous preparation comprising . . . ppm of active compound ([1]; 63 ppm) [%] | % infection of the leaves after application of an aqueous preparation comprising . . . ppm of active compound ([1]; 250 ppm) [%] | % infection of the leaves after application of an aqueous preparation comprising . . . ppm of active compound (Septoria tritici; 16 ppm) [%] | % infection of the leaves after application of an aqueous preparation comprising . . . ppm of active compound (Septoria tritici; 63 ppm) [%] | % infection of the leaves after application of an aqueous preparation comprising . . . ppm of active compound (Septoria tritici; 250 ppm) [%] | % infection of the leaves after application of an aqueous preparation comprising . . . ppm of active compound (Pyrenophora teres; 63 ppm) [%] | % infection of the leaves after application of an aqueous preparation comprising . . . ppm of active compound (Pyrenophora teres; 250 ppm) [%] |
| --- | --- | --- | --- | --- | --- | --- | --- | --- | --- | --- | --- | --- |
| Cc1cc(F)ccc1-c1c(Cl)nc2ncnn2c1N[C@@H](C)C(C)C [comparison (S)-amine of I.-23] | 100 | 100 | 100 | 60 | 60 | 60 | 40 | – | – | – | – | – |
| CC(Nc1c(-c2ccccc2C(F)(F)F)c(Cl)nc2ncnn12)C(C)(C)C [comparison (S)-amine of I.-26] | – | – | – | – | – | – | – | 100 | 100 | 100 | – | – |
| Cc1cccc(F)c1-c1c(Cl)nc2ncnn2c1N[C@H](C)C(C)C (single isomer, unassigned) [I.-11b] | – | 20 | 5 | – | – | 30 | 30 | – | – | – | 15 | 0 |
| Cc1cc(F)ccc1-c1c(Cl)nc2ncnn2c1NC(C)C(C)C (centres unmarked) [I.-23] | 3 | 0 | 0 | 0 | 15 | 5 | 3 | – | – | – | – | – |
| CC(Nc1c(-c2ccccc2Cl)c(Cl)nc2ncnn12)C(C)(C)C [comparison (S)-amine of I.-44b] | – | – | – | – | – | – | – | 80 | 80 | 80 | – | – |
| Cc1cccc(F)c1-c1c(Cl)nc2ncnn2c1NC(C)C(C)C [comparison (S)-amine of I.-11b] | – | 100 | 100 | – | – | 60 | 60 | – | – | – | 100 | 100 |
| CC(C)[C@H](C)Nc1c(-c2ccccc2C(F)(F)F)c(Cl)nc2ncnn12 [comparison (S)-amine of I.-25] | – | – | – | – | – | – | – | 100 | 100 | 100 | – | – |
